Data set [1] concerns human colon cancer HCT116. Description: Growth of human colon cancer HCT116 in allogeneic transplantation model. The data set is classed as in vivo, nude mice. As to conditions: 10 mg/kg i.v. qw × 2.
Method: (§6) When the tumor volume of the allogeneic transplantation was about 100 to 300 mm^3 and remained stable, the experimental animals were randomly divided into groups according to the size of the tumor volume (day 0) by using a remainder method. The tumor volume was measured 2 to 3 times a week. At the end of the dosage period, the experimental animals were sacrificed. The subcutaneous tumors were peeled and weighed. The anti-tumor activity of the drug against the model was evaluated based on tumor volume and tumor weight-related data.
(§7) The calculation formula of the tumor volume was: Volume=0.5×long diameter×short diameter×short diameter.
(§8) V0 was the resulting tumor volume measured at the time of dosing in groups (i.e., d0) and Vt was the tumor volume at each measurement.
(§9) TRTV was the average RTV of the subject, and CRTV was the average RTV of the model control group.
(§10) Wn: average body weight of each group of experimental animals on day n, and W0: average body weight of each group of experimental animals on day 0.
In data set [2] the test system is human gastric cancer NCI-N87. Description: Growth of human gastric cancer NCI-N87 in allogeneic transplantation model. The class given is in vivo, nude mice. As to conditions: for Relative volume RTV (X ± S.D.) / T/C (%) / Tumor inhibition rate (%) / Tumor weight (g, X ± S.D.): 20 mg/kg i.v. qw × 2. As to the method:
The tumor volume was measured 2 to 3 times per week. […] The subcutaneous tumors were peeled and weighed.
The calculation formula of the tumor volume: Volume=0.5×long diameter×short diameter×short diameter.

Data set [3] concerns human colon cancer HCT116. As to conditions: 30 mg/kg i.v. qw × 2; HCT116 large tumor after irinotecan. The text has this:
When the tumor volume was more than 600 mm^3 and stable growth was maintained, the experimental animals were randomly divided by the remainder method and administered according to the size of the tumor volume. […] The subcutaneous tumors were stripped and weighed.
T was the subject and C is the model control.
Tumor volume growth was observed on a regular basis after completion of dosing.

For a further data set, the system named is NCI-N87. Description: In vitro inhibition of human tumor cells, NCI-N87, MTT method. The data set is classed as cell-based. Background: Formazan colour is commonly taken as a measure of viable cells.
In a further data set the test system is MDA-MB-468. Description: In vitro inhibition of human tumor cells, MDA-MB-468, SRB method. Background: Sulforhodamine B stains cellular protein and so reports cell mass.
A further data set concerns SW620. Put plainly: In vitro inhibition of human tumor cells, SW620, SRB method. The data set is classed as cell-based. The text has this:
(§1) The cells were allowed to adhere overnight.
(§2) Trichloroacetic acid was removed. […] Excess SRB was removed.
(§3) The DMSO concentration was 0.1%.

Another data set relates to NCI-H460. Description: In vitro inhibition of human tumor cells, NCI-H460, MTT method. The data set is classed as cell-based. As to the method:
as §1
(§4) Adherent cells: Culture medium was aspirated and 100 μl/wells of basal culture (generally refers to medium without fetal bovine serum (FBS) and other additives) containing 0.5 mg/ml MTT were added. The cells were cultured for 3 hours. MTT-containing basal medium was aspirated and 100 μl/wells of DMSO were added to dissolve formazan.
(§5) Unstably adherent cells: Unstably adherent cells were directly added to the MTT solution to achieve the concentration of 0.5 mg/ml and cultured for 3 hours. The ternary solution in an equal volume to the system was added to the system to dissolve the formazan.
as §3

The test system of the next data set is BEL-7404. Put plainly: In vitro inhibition of human tumor cells, BEL-7404, SRB method.
Another data set has as its system Fadu. Description: In vitro inhibition of human tumor cells, Fadu, MTT method. The class given is cell-based.
A further data set deals with LoVo. Description: In vitro inhibition of human tumor cells, LoVo, SRB method. The data set is classed as cell-based.
Text: as §1, §2, §3

A further data set relates to 22RV1. Put plainly: In vitro inhibition of human tumor cells, 22RV1, SRB method.
The test system of data set [4] is human small cell lung cancer NCI-H446. As to conditions: 20 mg/kg i.v. qw × 2; NCI-H446 model.
Method: An allogeneic transplantation model of human small cell lung cancer NCI-H446 was established in nude mice subcutaneously using a tumor block inoculation method. When the tumor volume of the allogeneic transplantation was about 100 to 300 mm^3 and remained stable, the experimental animals were randomly divided into groups according to the size of the tumor volume (day 0, i.e., d0) using a remainder method. The tumor volume was measured 2 to 3 times a week. At the end of the dosage period, the experimental animals were sacrificed. The subcutaneous tumors were peeled and weighed. The anti-tumor activity of the drug against the model was evaluated based on tumor volume and tumor weight-related data.
as §7, §8
(§11) T was the subject and C was the model control.
as §9, §10
The test system of another data set is HCT116. Description: In vitro inhibition of human tumor cells, HCT116, MTT method. The data set is classed as cell-based. As to the method:
as §1, §4, §5, §3

For a further data set, the system named is A375. Description: In vitro inhibition of human tumor cells, A375, SRB method.
For another data set, the system named is BxPC-3. Description: In vitro inhibition of human tumor cells, BxPC-3, MTT method. The data set is classed as cell-based. The protocol:
as §1, §4, §5, §3

The subject of another data set is human colon cancer SW620. To be noted: 30 mg/kg i.v. qw × 2; SW620 model.
In the next data set the test system is human colon cancer LoVo. As to conditions: 30 mg/kg i.v. qw × 2; LoVo model.
Data set [5] concerns human pancreatic cancer BxPC-3. Put plainly: Growth of human pancreatic cancer BxPC-3 in allogeneic transplantation model. As to conditions: 25 mg/kg i.v. qw × 2, BxPC-3 model. The data set is classed as in vivo, nude mice.
Method: as §6, §7, §8, §11, §9, §10
(§12) In the large tumor efficacy test after the second grouping of the G5 group, since the number of samples in each group of G6.1 and G6.4 was less than three, the relevant data of the large tumor efficacy test were statistically analyzed among groups using the T-Test method.
Data set [6] relates to human pancreatic cancer BxPC-3. To be noted: 30 mg/kg i.v. qw × 2.
Method: as §6, §7, §8, §11, §9, §10, §12
The mark [7] stands for this setting: No βGU (direct effects of compound on cells).
Setting [8] is: BxPC-3 large tumors after irinotecan.

Like-named read-outs stand apart in the source and are kept apart here.

Method for 22RV1: (§13) 1.1.2 Cell culture method: Cells were cultured in complete medium, 37° C., 5% CO2, saturated humidity to log growth phase (adherent cells generally attended to complete fusion), and cells were collected for subsequent experiments (adherent cells were first digested with trypsin/ethylene diamine tetraacetic acid (EDTA) to remove adherent).
(§14) 1.1.3 96-well cell culture plates (hereinafter referred to as 96-well plates) were inoculated with a certain number of cells (see Table 1 for details). The cells were allowed to adhere overnight. […] Finally, the total amount of cell protein in the assay wells was determined by the SRB method, or the cell viability was determined by the MTT method:
(§15) The culture medium was aspirated from the wells and the cells were fixed for 1 hour or more by adding 10% trichloroacetic acid. Trichloroacetic acid was removed. The resultant was washed with H2O and stained with 0.4% SRB for 15 to 30 minutes. Excess SRB was removed. The resultant was washed with 1% acetic acid. The protein-bound SRB was dissolved by adding 10 mM of 100 μl Tris (trishydroxymethylaminomethane). Tests were carried out at the wavelength of 570 nm.
(§16) 1.1.4 dilution and addition of β-glucuronidase: 1 to 2 mg of β-glucuronidase was weighed and dissolved in PBS to give a 2 mg/ml of stock solution. […] 80 μl of enzyme working solution was added to the enzyme-containing assay wells. The amount of β-glucuronidase was 1 μg/wells. No enzyme-containing assay wells were added to the 80 μl of complete medium.
(§17) The assay wells were charged with 20 μl of 10× compound working solution. The final volume was 200 μl per well. The DMSO concentration was 0.1%.
(§18) 1.1.6 Compound inhibition activity calculation: The test included a compound test group, a compound-free positive solvent control group (PC) and a compound-free negative solvent control group (NC). […] The average inhibition rate and the standard deviation (SD) were obtained from the repeated test wells. The average inhibition rate was plotted on the basis of the compound concentration as an abscissa and distributed in the form of logarithms. The curve was fitted to the Logistic 4 parameter equation. […] The test was generally repeated to obtain 3 valid results.
Method for A375: as §13, §14, §15, §16, §17, §18
Method for BEL-7404: as §13, §14, §15, §16, §17, §18
Method for MDA-MB-468: as §13, §14, §15, §16, §17, §18
Method for human colon cancer LoVo: An allogeneic transplantation model of human colon cancer LoVo was established in nude mice subcutaneously using a tumor block inoculation method. When the tumor volume of the allogeneic transplantation was about 100 to 300 mm^3 and kept stable, the experimental animals were randomly divided into groups according to the tumor volume (day 0) by using a remainder method. The tumor volume was measured 2 to 3 times a week. At the end of the dosage period, the experimental animals were sacrificed. The subcutaneous tumors were peeled and weighed. The anti-tumor activity of the drug against the model was evaluated based on tumor volume and tumor weight-related data.
as §7
V0 was the resulting tumor volume measured at the time of dosing in groups (i.e., d0) and Vt is the tumor volume at each measurement.
as §11
TRTV was the average RTV of the subject and CRTV was the average RTV of the model control group.
as §10
Method for human colon cancer SW620: An allogeneic transplantation model of human colon cancer SW620 was established in nude mice subcutaneously using a tumor block inoculation method. When the tumor volume of the allogeneic transplantation was about 100 to 300 mm^3 and remained stable, the experimental animals were randomly divided into groups according to the size of the tumor volume (day 0) by using a remainder method. The tumor volume was measured 2 to 3 times a week. At the end of the dosage period, the experimental animals were sacrificed. The subcutaneous tumors were peeled and weighed. The anti-tumor activity of the drug against the model was evaluated based on tumor volume and tumor weight-related data.
as §7, §8
TRTV was the average value of RTV of the subject, and CRTV was the average RTV of the model control group.
as §10

The term IC50 denotes the concentration that gives 50% inhibition. The low end stands for greater potency in that assay, the high end for weaker potency in that assay. For “(2S,3S,4S,5R,6S)-6-(3-((1-(2-((4′-((E)-(8-amino-1-hydroxy-5,7-disulfonicnaphthalen-2-yl)diazenyl)-3,3′-dimethyl-[1,1′-biphenyl]-4-yl)amino)-2-oxoethyl)-1H-1,2,3-triazol-4-yl)methoxy)-4-((((S)-4,11-diethyl-4-hydroxy-3,14-dioxy-3,4,12,14-tetrahydro-1H-pyrano[3′,4′:6,7]indolazino[1,2-b]quinolin-9-yl)oxy)methyl)phenoxy)-3,4,5-trihydroxytetrahydro-2H-pyran-2-carboxylate trisodium [Example 90]”, the “T/C (%)” value in data set [1] stood at 23.7%; in [2], 25.3%; in data set [3], 23.9%. For the same substance, the “Tumor inhibition rate (%)” value in data set [1] is 81.7%; in data set [2] it was 83.5%; in data set [3], 77.0%. Besides, the results for the “Relative volume RTV (X ± S.D.)” value in [2] and in data set [3] were 1.30 ± 0.36 and 0.89 ± 0.10, respectively. Also, the entries for the “Tumor weight (g, X ± S.D.)” value in data set [2] and in data set [3] were 0.197 ± 0.085 g and 0.627 ± 0.408 g, respectively. Also, the IC50 in the data set with NCI-N87 (Adding βGU) came to 23 nM; in the data set on NCI-N87 (No βGU) it was 839 nM; with MDA-MB-468 (Adding βGU), 4.3 nM; in the data set on MDA-MB-468 (No βGU), 79 nM.
“(2S,3S,4S,5R,6S)-6-(3-((1-(2-(2-(2-((4′-((E)-(8-amino-1-hydroxy-5,7-disulfononaphthalen-2-yl)diazenyl)-3,3′-dimethoxy-[1,1′-biphenyl]-4-yl)amino)-2-oxoethoxy)ethoxy)ethyl)-1H-1,2,3-triazol-4-yl)methoxy)-4-(((S)-4,11-diethyl-4-hydroxy-3,14-dioxo-3,4,12,14-tetrahydro-1H-pyrano[3′,4′:6,7]indolazino[1,2-b]quinolin-9-yl)oxy)methyl)phenoxy)-3,4,5-trihydroxytetrahydro-2H-pyran-2-carboxylate trisodium [Example 61]”: the half-maximal inhibitory concentration (IC50) in the data set with SW620 (Adding βGU) worked out at 2.6 nM; in the data set on SW620 (No βGU), 283 nM; with NCI-H460 (Adding βGU) it was 8.6 nM; in the data set with NCI-H460 (No βGU), 518 nM; in the data set with BEL-7404 (Adding βGU), 40 nM; in the data set on BEL-7404 (No βGU), 565 nM. In addition, the IC50 is 15 nM in the data set on Fadu (Adding βGU); 498 nM in the data set on Fadu (No βGU); 5.9 nM in the data set with LoVo (Adding βGU); 244 nM in the data set with LoVo (No βGU); 8.4 nM in the data set with 22RV1 (Adding βGU); 225 nM with 22RV1 (No βGU). The IC50 in the data set on NCI-N87 (Adding βGU) was determined as 33 nM; in the data set with NCI-N87 (No βGU), 395 nM; in the data set with MDA-MB-468 (Adding βGU), 6.5 nM; with MDA-MB-468 (No βGU) it was 212 nM; in the data set with HCT116 (Adding βGU (β-glucuronidase)), 5.4 nM; in the data set on HCT116 (setting [7]), 220 nM. For the same substance, the IC50 with A375 (Adding βGU) came to 12.5 nM; in the data set on A375 (No βGU), 782 nM; with BxPC-3 (Adding βGU), 7.1 nM; with BxPC-3 (No βGU), 915 nM. For the same substance, the “T/C (%)” value in [1] stood at 27.2%; in [4], 3.7%. Further, the “Tumor inhibition rate (%)” value in data set [1] was 76.8%; in data set [4] it was 96.0%. Further, in [4], the “Relative volume RTV (X ± S.D.)” value came out at 0.25 ± 0.25. Also, the “Tumor weight (g, X ± S.D.)” value in data set [4] worked out at 0.039 ± 0.049 g.
Turning to “4-amino-6-((E)-(4′-(6-(4-((2-(((S)-4,11-diethyl-4-hydroxy-3,14-dioxy-3,4,12,14-tetrahydro-1H-pyrano[3′,4′:6,7]indolazo[1,2-b]quinolin-9-yl)oxy)methyl)-5-(((2S,3R,4S,5 S,6S)-3,4,5-trihydroxy-6-(methoxycarbonyl)tetrahydro-2H-pyran-2-yl)oxy)phenoxy)methyl)-1H-1,2,3-triazol-1-yl)hexanamido)-3,3′-dimethyl-[1,1′-biphenyl]-4-yl)diazenyl)-5-hydroxynaphthalene-1,3-disulfonate disodium [Example 21]”, the IC50 in the data set with SW620 (Adding βGU) stood at 23 nM; in the data set on SW620 (No βGU) it was 764 nM; in the data set on NCI-H460 (Adding βGU), 80 nM; in the data set with NCI-H460 (No βGU), 770 nM; in the data set on BEL-7404 (Adding βGU), 28 nM; in the data set with BEL-7404 (No βGU) it was 439 nM. Also, the IC50 came out at 9.8 nM in the data set on Fadu (Adding βGU); 298 nM in the data set with Fadu (No βGU); 45 nM in the data set with LoVo (Adding βGU); 720 nM with LoVo (No βGU); 14.5 nM in the data set on 22RV1 (Adding βGU); 399 nM in the data set on 22RV1 (No βGU). Also, the IC50 came to 42 nM in the data set with MDA-MB-468 (Adding βGU); 177 nM with MDA-MB-468 (No βGU); 35 nM in the data set on HCT116 (Adding βGU (β-glucuronidase)); 244 nM in the data set on HCT116 (setting [7]); 8.8 nM with A375 (Adding βGU); 556 nM in the data set with A375 (No βGU). The concentration for half-maximal inhibition (IC50) was 62 nM in the data set with BxPC-3 (Adding βGU) and 688 nM with BxPC-3 (No βGU). The “T/C (%)” value with human colon cancer SW620 is recorded as 0.5%; with human colon cancer LoVo, 9.8%. Also, the entries for the “Tumor inhibition rate (%)” value in the data set on human colon cancer SW620 and with human colon cancer LoVo were 99.8% and 93.1%, respectively.
With “(2S,3S,4S,5R,6S)-6-(3-((1-(5-((4′-((E)-(8-amino-1-hydroxy-5,7-disulfonicnaphthalen-2-yl)diazenyl)-3,3′-dimethyl-[1,1′-biphenyl]-4-yl)amino)-5-oxopentyl)-1H-1,2,3-triazol-4-yl)methoxy)-4-((((S)-4,11-diethyl-4-hydroxy-3,14-dioxy-3,4,12,14-tetrahydro-1H-pyrano[3′,4′:6,7]indolazino[1,2-b]quinolin-9-yl)oxy)methyl)phenoxy)-3,4,5-trihydroxytetrahydro-2H-pyran-2-carboxylate trisodium [Example 85]”, the “Relative volume RTV (X ± S.D.)” value was determined as 0.67 ± 0.24 in data set [2], 0.23 ± 0.05 in [5] and 0.48 ± 0.11 in data set [6] (setting [8]). In addition, the “T/C (%)” value is 13.0% in [2], 4.8% in data set [5] and 13.7% in data set [6] (setting [8]). The results for the “Tumor inhibition rate (%)” value in [2], in [5] and in data set [6] (setting [8]) were 93.6%, 97.2% and 90.0%, respectively. Besides, the “Tumor weight (g, X ± S.D.)” value was determined as 0.076 ± 0.014 g in data set [2], 0.047 ± 0.027 g in data set [5] and 0.301 ± 0.051 g in data set [6] (setting [8]). In addition, the “Final body weight change (%)” value in [2] (20 mg/kg i.v. qw × 2, nude mouse) is reported as 10.0%; in [5] (nude mouse) it was 4.0%; in [6] (BxPC-3 tumors more than 600 mm^3 after irinotecan 100 mg/kg i.p. qw × 2), 0.4%. Moreover, the IC50 was determined as 50 nM with BEL-7404 (Adding βGU); 721 nM in the data set with BEL-7404 (No βGU); 15 nM with Fadu (Adding βGU); 706 nM with Fadu (No βGU); 9 nM with 22RV1 (Adding βGU); 248 nM in the data set on 22RV1 (No βGU). Besides, the IC50 in the data set on NCI-N87 (Adding βGU) amounted to 31 nM; in the data set on NCI-N87 (No βGU), 178 nM; with MDA-MB-468 (Adding βGU), 9.7 nM; in the data set on MDA-MB-468 (No βGU), 71 nM; with A375 (Adding βGU), 19 nM; with A375 (No βGU), 864 nM.

The values are drawn from patent publication US20250325676A1, “CAMPTOTHECIN PRODRUG AND PHARMACEUTICAL COMPOSITION THEREOF” (TIANJIN HEMAY ONCOLOGY PHARMACEUTICAL CO., LTD, priority 2022, published 2025).
